Ends that are not written are not given here.
Assays:
Serum stability = assay type: in vitro ADME; conditions: fresh mouse serum, 37°C, read-out inhibition zone on S. aureus PRSA P1383 plates
Description: (§1) To assess serum stability, peptides were dissolved in H2O or fresh mouse serum for the indicated times at 37°C and their residual activity was measured by the inhibition-zone assay (Hultmark, [1998]).

Stability in H2O = assay type: physicochemical; conditions: 37°C, read-out inhibition zone on S. aureus PRSA P1383 plates
Description: as §1

[1] = tested on: penicillin-resistant Staphylococcus aureus P1383; experiment: Inhibition-zone assay (CL); assay type: cell-based; conditions: concentration used in killing kinetics and membrane permeation
Description: (§2) The antimicrobial activity of seven peptides, including MeuFSPL-1, MeuFSPL-2, Marmelittin, Melittin, Meucin-22, Marcin-22, and MeuTXKβ1, was evaluated by the inhibition-zone assay previously described in our studies (Hultmark, [1998]; Zhu et al., [2012a]; Zhu and Gao, [2014]). Temperatures used were 30 or 37°C for bacteria or 28°C for fungi. Media used were Luria-Bertani (LB) Broth (10 g tryptone, 5 g yeast extract, and 5 g NaCl in 1 l of water) or Nutrient Broth (10 g peptone, 5 g beef extract powder, and 5 g NaCl in 1 l of water) or GYM(Isp2) (4 g yeast extract, 10 g malt extract, 4 g glucose, 2 g CaCO3 in 1 l of water) for bacteria or Potato Dextrose Broth (200 g patato and 20 g glucose in 1 l of water) for fungi. To make plates, 10 μl of microbial culture (~2 × 10^6 bacterial cells or fungal spores/ml) were mixed in 6 ml of medium containing 0.8% agar and poured into Peri dishes of 9.0 cm diameter. Wells with a diameter of 2 mm were punched into the medium, filled with 2 μl of sample each well. In this assay, three different doses of peptides were applied to three independent wells in one standard bacterial plate. After incubation overnight, inhibition zones were measured and used to calculate lethal concentrations (CL), a concentration just sufficient to inhibit bacterial growth (Hultmark, [1998]; Gao et al., [2009]). CL values are calculated from a plot of d^2 against log n, where d is the diameter (in cm) and n is the amount of sample applied in the well (in nmol). The plot is linear and thus CL can be calculated from the slope (k) and the intercept (m) of this plot. The formula used here is CL = 2.93/ak10^m/k, where “a” is the thickness of the bacterial plate and “CL” is in μM.

S. aureus PRSA P1383 = experiment: Killing kinetics; assay type: cell-based, Staphylococcus aureus; conditions: 5x CL (20 μg/ml)
Description: The in vitro killing curve for MeuTXKβ1 was determined against the bacterium S. aureus PRSA P1383. For the assay, a single fresh colony was inoculated into LB (Luria-Bertani) medium (10 g tryptone, 5 g yeast extract, and 5 g NaCl in 1 l of H2O) and incubated at 37°C until OD600 of 0.2. The initial concentration used was 4 × 10^7 cells/ml. Samples for colony counts were taken at time 0, 5, 10, 15, 20, 30, and 60 min after addition of peptides. Results are given as colony-forming units (CFUs) per milliliter.

[2] = tested on: Stenotrophomonas maltophilia CGMCC 1.1788; experiment: Inhibition-zone assay (CL); assay type: cell-based; conditions: SMAL CGMCC 1.1788, N.A. = no activity at 0.8 nmol peptide each well
Description: as §2

[3] = tested on: Streptococcus salivarius ATCC 1.2498; experiment: Inhibition-zone assay (CL); assay type: cell-based; conditions: SSAL ATCC 1.2498, N.A. = no activity at 0.8 nmol peptide each well
Description: as §2

[4] = tested on: Staphylococcus aureus J710; experiment: Inhibition-zone assay (CL); assay type: cell-based; conditions: SA J710, N.A. = no activity at 0.8 nmol peptide each well
Description: as §2

[5] = tested on: Staphylococcus aureus J700; experiment: Inhibition-zone assay (CL); assay type: cell-based; conditions: SA J700, N.A. = no activity at 0.8 nmol peptide each well
Description: as §2

[6] = tested on: methicillin-resistant coagulase-negative Staphylococcus P1369; experiment: Inhibition-zone assay (CL); assay type: cell-based; conditions: MRCNS P1369, N.A. = no activity at 0.8 nmol peptide each well
Description: as §2

[7] = tested on: penicillin-sensitive Staphylococcus epidermidis P1111; experiment: Inhibition-zone assay (CL); assay type: cell-based; conditions: PSSE P1111, N.A. = no activity at 0.8 nmol peptide each well
Description: as §2

[8] = tested on: Streptomyces scabiei CGMCC 4.1765; experiment: Inhibition-zone assay (CL); assay type: cell-based; conditions: SSCA CGMCC 4.1765, N.A. = no activity at 0.8 nmol peptide each well
Description: as §2

[9] = tested on: Staphylococcus aureus J685; experiment: Inhibition-zone assay (CL); assay type: cell-based; conditions: SA J685, N.A. = no activity at 0.8 nmol peptide each well
Description: as §2

[10] = tested on: penicillin-resistant Staphylococcus epidermidis P1389; experiment: Inhibition-zone assay (CL); assay type: cell-based; conditions: PRSE P1389, N.A. = no activity at 0.8 nmol peptide each well
Description: as §2

[11] = tested on: Streptococcus mutans ATCC 1.2499; experiment: Inhibition-zone assay (CL); assay type: cell-based; conditions: SM ATCC 1.2499, N.A. = no activity at 0.8 nmol peptide each well
Description: as §2

[12] = tested on: Streptomyces griseus NBRC 13350; experiment: Inhibition-zone assay (CL); assay type: cell-based; conditions: SG NBRC 13350, N.A. = no activity at 0.8 nmol peptide each well
Description: as §2

[13] = tested on: Streptococcus sanguinis ATCC 1.2497; experiment: Inhibition-zone assay (CL); assay type: cell-based; conditions: SSAN ATCC 1.2497, N.A. = no activity at 0.8 nmol peptide each well
Description: as §2

[14] = tested on: Bacillus subtilis CGMCC 1.2428; experiment: Inhibition-zone assay (CL); assay type: cell-based; conditions: BS CGMCC 1.2428, N.A. = no activity at 0.8 nmol peptide each well
Description: as §2

[15] = tested on: Staphylococcus aureus J708; experiment: Inhibition-zone assay (CL); assay type: cell-based; conditions: SA J708, N.A. = no activity at 0.8 nmol peptide each well
Description: as §2

[16] = tested on: methicillin-sensitive Staphylococcus aureus CGMCC 1.89; experiment: Inhibition-zone assay (CL); assay type: cell-based; conditions: MSSA CGMCC 1.89, N.A. = no activity at 0.8 nmol peptide each well
Description: as §2

[17] = tested on: Staphylococcus aureus J698; experiment: Inhibition-zone assay (CL); assay type: cell-based; conditions: SA J698, N.A. = no activity at 0.8 nmol peptide each well
Description: as §2

[18] = tested on: Staphylococcus aureus J706; experiment: Inhibition-zone assay (CL); assay type: cell-based; conditions: SA J706, N.A. = no activity at 0.8 nmol peptide each well
Description: as §2

[19] = tested on: Staphylococcus warneri ATCC 1.2824; experiment: Inhibition-zone assay (CL); assay type: cell-based; conditions: SW ATCC 1.2824, N.A. = no activity at 0.8 nmol peptide each well
Description: as §2

[20] = 24 h, three independent experiments

CN[C@H](CC(C)C)C(=O)N[C@H]1C(=O)N[C@@H](CC(N)=O)C(=O)N[C@H]2C(=O)N[C@H]3C(=O)N[C@H](C(=O)N[C@H](C(=O)O)c4cc(O)cc(O)c4-c4cc3ccc4O)[C@H](O)c3ccc(c(Cl)c3)Oc3cc2cc(c3O[C@@H]2O[C@H](CO)[C@@H](O)[C@H](O)[C@H]2O[C@H]2C[C@](C)(N)[C@H](O)[C@H](C)O2)Oc2ccc(cc2Cl)[C@H]1O [vancomycin]
residual activity after incubation in mouse serum (Serum stability; 6 h): remained its full activity | residual activity after incubation in mouse serum (Serum stability; [20]): completely lose | residual activity after incubation in H2O (Stability in H2O; 6 h): remained its full activity | residual activity after incubation in H2O (Stability in H2O; [20]): completely lose | 5x CL for P1383 [1]: 20 µg/mL | killing rate compared with MeuTXKβ1 (S. aureus PRSA P1383): slower killing rate

IFGAIAGLLKNIF-NH2 [MUC-13, reference compound]
Lethal concentration (CL) [2]: 4.89 µM | Lethal concentration (CL) [3]: 7.54 µM | Lethal concentration (CL) [4]: 7.10 µM | Lethal concentration (CL) [5]: 7.54 µM | Lethal concentration (CL) [6]: 33.80 µM | Lethal concentration (CL) [7]: 10.24 µM | Lethal concentration (CL) [8]: 15.07 µM | Lethal concentration (CL) [9]: 10.16 µM | Lethal concentration (CL) [10]: 24.06 µM | Lethal concentration (CL) [11]: 10.24 µM | Lethal concentration (CL) [12]: 53.31 µM | Lethal concentration (CL) [13]: 6.24 µM | Lethal concentration (CL) [14]: 6.24 µM | Lethal concentration (CL) [15]: 7.54 µM | Lethal concentration (CL) [16]: 10.24 µM | Lethal concentration (CL) [17]: 7.54 µM | Lethal concentration (CL) [18]: 5.67 µM | Lethal concentration (CL) [19]: 6.24 µM

Source: publication PMC5863496, “Mesobuthus Venom-Derived Antimicrobial Peptides Possess Intrinsic Multifunctionality and Differential Potential as Drugs” (Frontiers in Microbiology, 2018)
